ChEMBL document CHEMBL2074370, “Are MDCK cells transfected with the human MDR1 gene a good model of the human intestinal mucosa?” (Pharm Res, 2002)

Key:
[1] = system: CC[C@]1(O)C[C@@H]2CN(CCc3c([nH]c4ccccc34)[C@@](C(=O)OC)(c3cc4c(cc3OC)N(C)[C@H]3[C@@](O)(C(=O)OC)[C@H](OC(C)=O)[C@]5(CC)C=CCN6CC[C@]43[C@@H]65)C2)C1; test: TP_TRANSPORTER: transepithelial transport (basal to apical) in MDR1-expressing MDCK cells; type: functional, cell-based
[2] = target: ATP-dependent translocase ABCB1 (Homo sapiens, UniProt P08183); test: TP_TRANSPORTER: inhibition of Digoxin transepithelial transport (basal to apical) in MDR1-expressing MDCK cells; type: functional, cell-based
Chain of ATP-dependent translocase ABCB1 (P08183 whole entry): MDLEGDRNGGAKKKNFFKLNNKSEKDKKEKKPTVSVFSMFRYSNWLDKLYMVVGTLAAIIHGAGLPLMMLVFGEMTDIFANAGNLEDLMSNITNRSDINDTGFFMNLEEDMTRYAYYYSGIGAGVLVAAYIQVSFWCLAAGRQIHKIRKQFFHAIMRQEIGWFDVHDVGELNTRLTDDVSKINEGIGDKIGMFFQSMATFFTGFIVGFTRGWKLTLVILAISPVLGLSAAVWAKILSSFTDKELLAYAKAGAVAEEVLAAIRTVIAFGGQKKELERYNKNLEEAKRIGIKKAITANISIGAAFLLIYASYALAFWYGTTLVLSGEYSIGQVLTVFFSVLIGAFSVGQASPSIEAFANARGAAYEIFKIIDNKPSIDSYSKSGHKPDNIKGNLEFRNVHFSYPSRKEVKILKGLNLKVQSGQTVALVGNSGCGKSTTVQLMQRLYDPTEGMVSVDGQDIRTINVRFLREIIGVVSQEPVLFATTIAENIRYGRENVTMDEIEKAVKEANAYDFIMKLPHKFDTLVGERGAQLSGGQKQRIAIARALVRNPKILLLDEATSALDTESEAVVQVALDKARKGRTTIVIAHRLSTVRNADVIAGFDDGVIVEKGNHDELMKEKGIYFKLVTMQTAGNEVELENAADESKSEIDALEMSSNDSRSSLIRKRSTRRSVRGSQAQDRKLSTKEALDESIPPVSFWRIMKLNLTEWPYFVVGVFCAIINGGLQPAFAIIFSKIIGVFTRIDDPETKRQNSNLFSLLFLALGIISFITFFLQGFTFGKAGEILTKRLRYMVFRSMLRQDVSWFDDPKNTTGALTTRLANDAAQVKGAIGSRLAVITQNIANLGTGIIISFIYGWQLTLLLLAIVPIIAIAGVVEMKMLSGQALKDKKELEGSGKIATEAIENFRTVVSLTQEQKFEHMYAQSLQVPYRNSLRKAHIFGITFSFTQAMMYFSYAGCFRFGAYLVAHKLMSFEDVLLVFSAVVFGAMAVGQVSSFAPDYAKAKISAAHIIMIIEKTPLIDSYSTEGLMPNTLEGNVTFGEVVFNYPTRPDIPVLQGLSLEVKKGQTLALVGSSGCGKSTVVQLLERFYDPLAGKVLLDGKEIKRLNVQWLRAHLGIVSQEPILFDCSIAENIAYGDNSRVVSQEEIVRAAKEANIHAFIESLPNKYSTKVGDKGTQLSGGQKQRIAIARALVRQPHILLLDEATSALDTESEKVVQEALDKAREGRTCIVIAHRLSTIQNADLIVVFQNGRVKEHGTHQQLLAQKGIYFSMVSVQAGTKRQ

Ki [2] [µM] | Compound | Km [1] [µM]
– | ATP-dependent translocase ABCB1 (Homo sapiens) | 253
213 | CC[C@]1(O)C[C@H]2CN(CCc3c([nH]c4ccccc34)[C@@](C(=O)OC)(c3cc4c(cc3OC)N(C=O)[C@H]3[C@@](O)(C(=O)OC)[C@H](OC(C)=O)[C@]5(CC)C=CCN6CC[C@]43[C@@H]65)C2)C1 [VINCRISTINE] | –
11.5 | COC(=O)[C@H]1[C@H]2C[C@@H]3c4[nH]c5cc(OC)ccc5c4CCN3C[C@H]2C[C@@H](OC(=O)c2cc(OC)c(OC)c(OC)c2)[C@@H]1OC [RESERPINE] | –
111 | COc1cccc2c1C(=O)c1c(O)c3c(c(O)c1C2=O)C[C@@](O)(C(C)=O)C[C@@H]3O[C@H]1C[C@H](N)[C@H](O)[C@H](C)O1 [DAUNORUBICIN] | –
